Measurements taken from patent publication US11744843B2, “Identification and treatment of T-cell epitopes of short H2A oncohistones” (Fred Hutchinson Cancer Research Center, priority 2020, dated 2023).
Entries after “also recorded” stand apart in the source; their conditions may differ.

What was measured:
Assay type in all cases: cell-based
[1] = test system: Hodgkin's lymphoma cell line (L-1236); test: Western blot of cleaved PARP, γ-H2A.X and tubulin after drug treatment, Hodgkin's lymphoma cell line L-1236
Protocol: FIGS. 11A to 11B. […] FIG. 11A illustrates a Western blot gel depicting marker expression following a 72 hour treatment with aclarubicin, etoposide, and doxorubicin. The markers are listed on the y-axis. The specific agents and amounts were added according to the labeling on the x-axis, which is fully described in the figure legend. FIG. 11B illustrates graphs of the relative band intensity taken from the Western blot and plotted according to drug concentration. The band intensity of PARP was used as an indicator of agent cytotoxicity. The band intensity of γ-H2A.X was used as an indicator of DNA damage (side effect). The band intensity of tubulin was used as a control.
(§1) FIG. 11A is a Western blot gel assessing expression of the markers listed on the y-axis. The specific cancer therapeutics and the amounts used are indicated by the numbers along the x-axis and the corresponding figure legend. In this Example, aclarubicin's cytotoxicity on lymphoma cells was assessed by determining the amount of cleaved PARP, which was assessed as band intensity (FIG. 11B) from the Western blot (FIG. 11A). In this Example, aclarubicin's corresponding DNA damage was assessed by measuring the amount of γ-H2A.X, which was assessed as band intensity (FIG. 11B) from the Western blot (FIG. 11A).

[2] = test system: Hodgkin's lymphoma cell line (L-428); test: Western blot of cleaved PARP, γ-H2A.X and tubulin after drug treatment, Hodgkin's lymphoma cell line L-428
Protocol: FIGS. 12A to 12B. […] FIG. 12A illustrates a Western blot gel as described in FIG. 11A. FIG. 12B illustrates graphs of the relative band intensity taken from the Western blot as described in FIG. 11B.
(§2) In FIGS. 12 and 13, similar experiments were performed to compare the cytotoxicity of aclarubicin to etoposide and doxorubicin in additional lymphoma cell lines. In FIG. 12, the compounds cytotoxicity and side effects were assessed in the Hodgkin's lymphoma cell line, L-428. In FIG. 13, the compounds cytotoxicity and side effects were assessed in the diffuse large B-cell lymphoma cell line, A3/KAW.

[3] = test system: diffuse large B-cell lymphoma cell line (A3/Kawakami); test: Western blot of cleaved PARP, γ-H2A.X and tubulin after drug treatment, diffuse large B-cell lymphoma cell line A3/Kawakami; conditions: compared with etoposide and doxorubicin
Protocol: FIGS. 13A to 13B. […] FIG. 13A illustrates a Western blot gel as described in FIG. 11A. FIG. 13B illustrates graphs of the relative band intensity taken from the Western blot as described in FIG. 11B.
as §2

[4] = test system: lymphoma cells; test: Western blot of cleaved PARP and γ-H2A.X, summary over the three lymphoma cell lines (FIGS. 11-13)
Protocol: as §1, §2

[5] = L-1236, 72 hour treatment, 100 nM to 5.0 μM, compared with etoposide and doxorubicin
[6] = L-428, 72 hour treatment, compared with etoposide and doxorubicin

SMILES: CC[C@@]1(O)C[C@H](O[C@H]2C[C@H](N(C)C)[C@H](O[C@H]3C[C@H](O)[C@H](O[C@H]4CCC(=O)[C@H](C)O4)[C@H](C)O3)[C@H](C)O2)c2c(cc3c(c2O)C(=O)c2c(O)cccc2C3=O)[C@H]1C(=O)OC [aclarubicin]
- DNA damage (band intensity of γ-H2A.X, side effect) [1, 5]: minimizing DNA damage
- apoptosis / cytotoxicity (band intensity of PARP) [1, 5]: maximizes apoptosis
- relative band intensity of PARP/tubulin, PARP/γ-H2A.X and γ-H2A.X/Tubulin ([1]; L-1236, compared with etoposide and doxorubicin): best combination of anti-neoplastic activity while having fewer harmful side effects
- DNA damage (band intensity of γ-H2A.X, side effect) [2, 6]: minimizing DNA damage
- apoptosis / cytotoxicity (band intensity of PARP) [2, 6]: maximizes apoptosis
- cytotoxicity and side effects (relative band intensities) ([2]; L-428, compared with etoposide and doxorubicin): best combination of anti-neoplastic activity while having fewer harmful side effects
- cytotoxicity and side effects (relative band intensities) ([3]; A3/KAW): best combination of anti-neoplastic activity while having fewer harmful side effects
- DNA damage (band intensity of γ-H2A.X, side effect) ([3]; A3/Kawakami, 72 hour treatment): minimizing DNA damage
- apoptosis / cytotoxicity (band intensity of PARP) ([3]; A3/Kawakami, 72 hour treatment): maximizes apoptosis
- DNA damage as measured by γ-H2A.X; side effect profile ([4]; FIGS. 11-13, compared with doxorubicin or etoposide): much less DNA damage; also recorded: much more favorable side effect profile than doxorubicin
- killing of lymphoma cells as measured by cleaved PARP; anti-neoplastic activity ([4]; FIGS. 11-13, three lymphoma cell lines): efficiently kills lymphoma cells; also recorded: more anti-neoplastic activity than etoposide
